Measurements as given in a melting point compilation (Tetko et al.).

SMILES | melting point [°C]
Cc1ncc([N+](=O)[O-])n1CCCN1C(=O)c2ccccc2C1=O | 168 to 169
COc1ccc(/N=N/c2c(N)nn3c(C(F)(F)F)cc(C)nc23)cc1 | 158
CC(=O)Nc1cccc2c1ccc1nc(-c3ccccc3)c(-c3ccccc3)nc12 | 249
O=Cc1coc2c(Cl)cc(Cl)cc2c1=O | 169 to 174
O=c1c(O)c(-c2ccc(O)cc2O)oc2cc(O)cc(O)c12 | 304
CC(C)(C)OC(=O)N1CCN(c2ccccc2C(=O)O)CC1 | 165 to 166
NC(=O)C(Br)(Br)C(N)=O | 205
CC(=O)NC(C(=O)O)c1ccccc1 (stereo unspecified) | 197 to 201
Cc1ccc(O)c(C(=O)c2ccccc2)c1 | 83 to 85
Cc1nn(C)c2ncc(C(N)=O)c(Cl)c12 | 275
O=C1C=C(NCCc2ccccn2)C(=O)c2ccccc21 | 128 to 129
COc1ccc(-c2onc(C(=O)c3ccc(Br)cc3)c2S(=O)(=O)c2ccccc2)cc1 | 140
OC1CCCCCC1 | 2
Nc1ccn(C2CCC(CO)O2)c(=O)n1 (stereo unspecified) | 218
Cn1nc(-c2ccc(S(=O)(=O)Cl)s2)cc1C(F)(F)F | 83 to 86
CCCCCCCCCCCCC1=C(OC(C)=O)C(=O)c2ccccc2C1=O | 59.6
O=C1OC2(Cc3ccccc31)C(=O)c1ccccc1C2=O | 205
Cc1nc2sc3c(c2c(=O)n1NC(=O)c1ccc(Cl)cc1)CCCC3 | 234 to 235
Cc1ccc(OP(=O)(Oc2ccc(C)c(C)c2)Oc2ccc(C)c(C)c2)cc1C | 72
Clc1cc(Br)cc(Br)c1 | 93
O=C1OC(=O)C2=C1CC1=C(CC=CC1)C2 | 204
CN(c1ccc2cc3ccc4c(c3nc2c1)COCN4)S(C)(=O)=O | 300
Nc1nc2ccccc2n1Cc1ccc(F)cc1 | 191 to 193
C#CC1(O)CCC2(C)C3CCC4(C)C(=O)CCC4C3CCC2(C)C1 (stereo unspecified) | 238
O=[N+]([O-])c1cc(C(F)(F)F)ccc1N1CCCCC1 | 48 to 50
O=C(CCCN1CCC(n2c(=O)[nH]c3ccccc32)CC1)c1ccc(F)cc1 | 170

SMILES | melting point [°C]
CCC(=C(CC)c1ccc(OC)cc1)c1ccc(OC)cc1 | 124
COc1cc2c(cc1C(C)C)C(C(=O)O)C2 (stereo unspecified) | 86
NC(=O)c1cccc2c1OCCO2 | 130 to 132
O=C(CO)c1ccc(Br)cc1 | 137 to 142
COc1ccc(C=O)cc1[N+](=O)[O-] | 99
CCCCCCC=NO | 57.5
O=C(CBr)c1cc(Br)cc2c1OCC2 | 132 to 134
COc1ccc(C(=O)c2nn3c(nc(=O)c4ccccc43)s2)cc1 | 179
COc1ccccc1-c1ccc(C=C2C(=O)OC(C)(C)OC2=O)o1 | 147
OCCc1ccccc1C(F)(F)F | 2 to 3
O=C(OCc1ccc([N+](=O)[O-])cc1[N+](=O)[O-])c1ccccc1 | 139
COc1ccc(C(=O)Cc2c(CCN(C)C)cc3c(c2OC)OCO3)c(C(=O)O)c1OC | 138
Cc1nc(-c2cccc(N)c2)cs1 | 101 to 103
CNC(=Nc1ncccc1C)SC | 25 to 27
CC(C)C(C)(N)P(=O)(O)O (stereo unspecified) | 248 to 255
CCOC(=O)C=Cc1ccc(OC)c(OC)c1Cl | 68 to 69
FC(F)C(F)(F)F | -103
CC(C)NC(=O)C(Br)C(C)(C)C (stereo unspecified) | 128 to 130
CC1OC(n2cc(F)c(=O)[nH]c2=O)C(O)C1O (stereo unspecified) | 190
COc1cc(C=CC(=O)O)ccc1OCc1ccccc1 | 192
c1ccc(N=Nc2ccc(/N=N/c3ccc(N=Nc4ccccc4)cc3)cc2)cc1 | 233
COC(=O)CC(=O)c1ccc(C(=O)OC)cc1 | 81 to 86
CC(C)(C)c1ccc(C(C)(C)C)cc1 | 79.5
Nc1nn2c(C(F)(F)F)cc(-c3cccs3)nc2c1/N=N/c1ccc(C(=O)O)cc1 | 184
Nc1nc(N)sc(=S)n1 | 360
CN(C)[Si](C)(N(C)C)N(C)C | -11

SMILES | melting point [°C]
CCCCCCCCCCCC(=O)OOC(=O)CCCCCCCCCCC | 53 to 57
CCOc1ccccc1OCCBr | 42
Nc1ccc(Cl)cc1C(=O)c1cccc(O)c1 | 190 to 192
CCCCCCCCCCCCCC(=O)Cl | -1
CCOC(=O)c1sc(SCc2ccccc2)c2c1CCCC2=O | 139 to 141
Nc1cc(-c2ccccc2)ccc1O | 200
NC(Cc1n[nH]c2ccccc12)C(=O)O (stereo unspecified) | 240
CCOC(=O)[C@H]1CCC(=O)N1 | 49 to 53
CCOC(=O)C1=C(C)NC(=O)NC1c1cccc(OC)c1OC (stereo unspecified) | 195
COc1c(Br)ccc(C)c1C(=O)O | 125
O=S(=O)(Cl)c1c(Cl)cc(C(F)(F)F)cc1Cl | 48
O=Cc1cc(O)ccc1I | 125 to 126
O=C(O)C1CCCNC1 (stereo unspecified) | 246 to 253
FC(Cl)(Cl)CCl | -140
CC(C)CCC[C@@H](C)[C@H]1CC[C@H]2C3=CC=C4C[C@@H](O)CC[C@]4(C)[C@H]3CC[C@]12C | 150
O=C(/C=C/c1ccc(Cl)c(Cl)c1)c1ccc2ccccc2c1 | 153
C#CC1(O)CCC2(C)C(CCC3C2CCC2(C)C3CCC2(C)O)C1 (stereo unspecified) | 190
O=C(O)CCCn1c(C(F)(F)F)nc2ccccc21 | 143 to 145
CC(C)(C)OC(=O)C1CC(=O)CN1C(=O)OC(C)(C)C (stereo unspecified) | 66
Cc1cc(I)c(C)cc1I | 103 to 104
Cc1c([N+](=O)[O-])cc(C(=O)N2CCCCCC2)cc1[N+](=O)[O-] | 106
C=Cc1ccccc1-c1cn[nH]c1 | 114
FC(F)(F)c1cc(Br)c2nc[nH]c2c1 | 218 to 220
O=C(O)c1cc(Br)cnc1Br | 184 to 185
Cc1nn(C(=O)OC(C)(C)C)c(C)c1C=O | 59 to 62
O=[N+]([O-])c1ccc(/C=C/C=C/C=C/c2ccc([N+](=O)[O-])cc2)cc1 | 240

SMILES | melting point [°C]
Cc1c(O)ccc(O)c1C | 224
Cc1c(O)ncnc1Cl | 202
O=C(O)Cc1ccsc1 | 79
NC(=S)NN=C1C(=O)Nc2ccccc21 | 232
CC12CCC(C(C(=O)Oc3ccccc3)C1)C2(C)C (stereo unspecified) | 41
COc1ccc(C=CC(=O)c2ccccc2)c(OC)c1 | 69 to 70
O=C1OC(=O)C2=C1CCCC2 | 74
COC(=O)c1sccc1N | 66 to 67
Nc1cccc(Cl)n1 | 71
Cc1ccc(C(c2ccc(C)o2)c2ccccc2[N+](=O)[O-])o1 | 80
COc1cc(N)c(C(C)=O)cc1OC | 106
COc1c(Br)cc(C(=O)O)cc1Br | 224 to 226
COc1cc2c(cc1OC)C(C#N)C2 (stereo unspecified) | 82
CCc1c(C)ccc2c1CCC1C2CCC2CC(O)CCC21C (stereo unspecified) | 172
CSc1nc(N)c(C(=O)c2ccccc2)s1 | 126 to 127
FC(F)(F)c1ccc(Br)nc1 | 46 to 47
CCOC(=O)NC(=S)Nc1sc2c(c1C(=O)OCC)CCN(Cc1ccccc1)C2 | 206
O=C(O)C1c2ccccc2Oc2ccccc21 | 217
CCOC(=O)C1=C(NC(=O)CCl)Oc2c(c(=O)oc3ccccc23)C1c1ccc(Br)cc1 (stereo unspecified) | 158
CCc1nn(C)c(C(=O)NCc2ccc(C(C)(C)C)cc2)c1Cl | 65
Cc1c([N+](=O)[O-])cc(N)cc1[N+](=O)[O-] | 171
CCOC(=O)c1c(C)oc(NC(=O)Nc2ccc(F)cc2)c1C(=O)OCC | 146 to 148
Clc1ccc(C(c2ccccc2Cl)C(Cl)Cl)cc1 (stereo unspecified) | 77
CCCCC(/C=C1\C(=O)C2(C)CCC1C2(C)C)(/C=C1\C(=O)C2(C)CCC1C2(C)C)C(=O)OCC (stereo unspecified) | 175
Cc1oncc1C(=O)O | 147
On1nnc2ccc(Cl)cc21 | 197

SMILES | melting point [°C]
Cc1nc2ccccc2n1CCCC(=O)O | 234 to 238
O=C1C2CC3CC(C2)CC1C3 | 286
CC1(C)C(C=CC(=O)OC(C(F)(F)F)C(F)(F)F)C1C(=O)OC(C#N)c1cccc(Oc2ccccc2)c1 (stereo unspecified) | 81.5
CCN(C)C(=O)COC(=O)c1ccccc1 | 20
CC(=CC=C(C)C(=O)O)C(=O)O | 221
O=C(O)C(F)(F)c1ccccc1 | 75
CC(CC(C)=NO)=NO | 149
CC1CC2C3CC(F)C4=CC(=O)C=CC4(C)C3(F)C(O)CC2(C)C1C(=O)CO (stereo unspecified) | 242
CCF | -143
N#CC(C#N)=C(C(=O)Cc1ccccc1)c1ccc([N+](=O)[O-])cc1 | 332 to 334
CC(=O)NC1CCSC1=O (racemic) | 110
CC(=O)Oc1cc(OC(C)=O)c2c(=O)c(OC(C)=O)c(-c3ccc(OCc4ccccc4)cc3)oc2c1 | 150
CC(Oc1ccc(Oc2nc3ccc(Cl)cc3o2)cc1)C(=O)O (stereo unspecified) | 158
CCOC(=O)C1=C(N)Oc2ccc3ccccc3c2[C@H]1c1ccc(C)cc1 | 201
Oc1ccccc1C1Nn2c(COc3ccccc3)nnc2S1 (stereo unspecified) | 217
Nc1cccc(-c2cncnc2)c1 | 163 to 166
O=C1CC[C@@H](CO)N1 | 78 to 86
Cc1oc(S(=O)(=O)N(C)C)cc1C(=O)O | 169
OC(c1ccc(Cl)cc1)c1ccc(Cl)cc1 | 92
CC[C@H](N)P(=O)(O)O | 260
COc1ccc(OCC(=O)O)cc1 | 112 to 114
CCCCCCCCCCOc1ccc(C(C)=O)cc1OCCCCCCCCCC | 61 to 65
